Data from paper PMC12751066, “Plastidial phosphoglucose isomerase undergoes thioredoxin-mediated redox modification without altering catalytic activity” (Biochemical Journal, 2025).

Tests used:
PGI1 [1] = target: T1, PGI1 (Arabidopsis thaliana, UniProt Q8H103); test: inhibition at varying E4P concentrations, coupled spectrophotometric assay; assay type: biochemical; conditions: F6P or G6P as substrate; 25 °C; reduced and oxidized PGI1
T1 construct: homodimer reported as functional unit
T1 sequence (Q8H103 70-613): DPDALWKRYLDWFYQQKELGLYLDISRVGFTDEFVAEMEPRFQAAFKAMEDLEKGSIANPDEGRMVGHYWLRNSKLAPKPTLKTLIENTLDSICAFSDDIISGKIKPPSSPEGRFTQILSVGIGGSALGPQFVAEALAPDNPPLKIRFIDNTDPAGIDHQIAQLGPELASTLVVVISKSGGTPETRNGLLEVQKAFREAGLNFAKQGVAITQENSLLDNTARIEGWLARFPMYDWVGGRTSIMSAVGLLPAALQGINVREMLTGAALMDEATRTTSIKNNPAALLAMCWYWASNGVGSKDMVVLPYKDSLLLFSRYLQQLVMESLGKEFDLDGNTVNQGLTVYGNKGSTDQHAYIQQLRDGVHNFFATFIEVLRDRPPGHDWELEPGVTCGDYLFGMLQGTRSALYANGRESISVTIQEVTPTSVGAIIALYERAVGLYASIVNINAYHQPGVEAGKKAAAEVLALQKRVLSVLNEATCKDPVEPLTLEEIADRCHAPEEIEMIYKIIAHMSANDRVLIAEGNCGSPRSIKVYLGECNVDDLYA

PGI1 [2] = target: T1, PGI1; test: inhibition at varying 6PG concentrations, coupled spectrophotometric assay; assay type: biochemical; conditions: F6P or G6P as substrate; 25 °C; reduced and oxidized PGI1

Compound | inhibition at varying E4P concentrations, coupled spectrophotometric assay (PGI1 [1]) | inhibition at varying 6PG concentrations, coupled spectrophotometric assay (PGI1 [2])
O=C[C@H](O)[C@H](O)COP(=O)(O)O [E4P] | PGI1 activity decreased with increasing concentrations of E4P (Figure 9A and B) | 
O=C(O)[C@H](O)[C@@H](O)[C@H](O)[C@H](O)COP(=O)(O)O [6PG] |  | PGI1 activity decreased with increasing concentrations of E4P (Figure 9A and B) and 6PG
